Laboratory results as given in patent US20260248824A1, “LIPID NANOPARTICLES” (SHIZUOKA PREFECTURAL UNIVERSITY CORPORATION, priority 2023, published 2026).

System: Insulinoma INS-1 cells derived from rat pancreatic β cells
Assay: Antiapoptotic effects on pancreatic β cells (cleaved caspase-3 western blotting, thapsigargin-induced)
Type: cell-based
Settings: thapsigargin 300 nM, nobiletin concentration 20 μM, 14 hours, FIG. 20
Method: Insulinoma INS-1 cells derived from rat pancreatic β cells were seeded into a 6-well dish at 8×10^5 cells/well. […] After 14 hours of treatment, the cells were collected and subjected to SDS-PAGE, and protein expression in pancreatic β cells was analyzed by western blotting using a cleaved caspase-3 antibody as an indicator of apoptosis. Correction was made using the expression level of 3-actin as an internal standard.

Question: With COc1ccc(-c2cc(=O)c3c(OC)c(OC)c(OC)c(OC)c3o2)cc1OC [nobiletin alone, nobiletin] as the molecule, how does the “Suppression of thapsigargin-induced increase in cleaved caspase 3 (antiapoptotic activity)” value read?
Answer: The value was “The effects were comparative with nobiletin alone”.
